Data from US20180055032A1, “ODORS FOR PSYLLID TRAPPING, REPELLING AND CONTROL” (The Regents of the University of California, priority 2011, published 2018).

Assays:
Format in all cases: cell-based, Diaphorina citri
[1] = tested on: neuron 7C (rhinarial plate on flagellomere 7); test: single-sensillum electrophysiology, odor response of neuron 7C; conditions: for odor response (frequency of action potentials during stimulus minus baseline), 7C: Table 1, odor diluted to 1%, 50 μL in cartridge
[2] = tested on: neuron 2B (rhinarial plate on flagellomere 2); test: single-sensillum electrophysiology, odor response of neuron 2B; conditions: for odor response (frequency of action potentials during stimulus minus baseline), 2B: Table 1, odor diluted to 1%, 50 μL in cartridge; for response to ultra-prolonged activators, 2B: key: 0, no response; +, >50 spikes/second; ++, >100 spikes/second; +++, >150 spikes/second
[3] = tested on: neuron 7B (rhinarial plate on flagellomere 7); conditions: for odor response (frequency of action potentials during stimulus minus baseline), 7B: Table 1, odor diluted to 1%, 50 μL in cartridge; for response to ultra-prolonged activators, 7B: key: 0, no response; +, >50 spikes/second; ++, >100 spikes/second; +++, >150 spikes/second
[4] = tested on: neuron 4A (rhinarial plate on flagellomere 4); test: single-sensillum electrophysiology, odor response of neuron 4A; conditions: for odor response (frequency of action potentials during stimulus minus baseline), 4A: Table 1, odor diluted to 1%, 50 μL in cartridge
[5] = tested on: neuron 2C (rhinarial plate on flagellomere 2); test: single-sensillum electrophysiology, odor response of neuron 2C; conditions: for odor response (frequency of action potentials during stimulus minus baseline), 2C: Table 1, odor diluted to 1%, 50 μL in cartridge
[6] = tested on: neuron 4B (rhinarial plate on flagellomere 4); conditions: for odor response (frequency of action potentials during stimulus minus baseline), 4B: Table 1, odor diluted to 1%, 50 μL in cartridge
[7] = tested on: neuron 6B (rhinarial plate on flagellomere 6); test: single-sensillum electrophysiology, odor response of neuron 6B; conditions: for odor response (frequency of action potentials during stimulus minus baseline), 6B: Table 1, odor diluted to 1%, 50 μL in cartridge
[8] = tested on: neuron 7A (rhinarial plate on flagellomere 7); test: single-sensillum electrophysiology, odor response of neuron 7A; conditions: for odor response (frequency of action potentials during stimulus minus baseline), 7A: Table 1, odor diluted to 1%, 50 μL in cartridge; for all read-outs here: key: 0, no response; +, >50 spikes/second; ++, >100 spikes/second; +++, >150 spikes/second
[9] = tested on: neuron 6C (rhinarial plate on flagellomere 6); test: single-sensillum electrophysiology, odor response of neuron 6C; conditions: for odor response (frequency of action potentials during stimulus minus baseline), 6C: Table 1, odor diluted to 1%, 50 μL in cartridge
[10] = tested on: neuron 4C (rhinarial plate on flagellomere 4); test: single-sensillum electrophysiology, odor response of neuron 4C; conditions: for odor response (frequency of action potentials during stimulus minus baseline), 4C: Table 1, odor diluted to 1%, 50 μL in cartridge
[11] = tested on: neuron 6A (rhinarial plate on flagellomere 6); test: single-sensillum electrophysiology, odor response of neuron 6A; conditions: for odor response (frequency of action potentials during stimulus minus baseline), 6A: Table 1, odor diluted to 1%, 50 μL in cartridge
[12] = tested on: neuron 2A (rhinarial plate on flagellomere 2); test: single-sensillum electrophysiology, odor response of neuron 2A; conditions: for odor response (frequency of action potentials during stimulus minus baseline), 2A: Table 1, odor diluted to 1%, 50 μL in cartridge; for all read-outs here: key: 0, no response; +, >50 spikes/second; ++, >100 spikes/second; +++, >150 spikes/second
[13] = Table 3, 10^−2 in paraffin oil, 50 μL, odor puff of 0.5 sec

Row | SMILES | odor response (frequency of action potentials during stimulus minus baseline), 7C [1] | odor response (frequency of action potentials during stimulus minus baseline), 2B [2] | odor response (frequency of action potentials during stimulus minus baseline), 7B [3] | odor response (frequency of action potentials during stimulus minus baseline), 4A [4] | odor response (frequency of action potentials during stimulus minus baseline), 2C [5] | odor response (frequency of action potentials during stimulus minus baseline), 4B [6] | odor response (frequency of action potentials during stimulus minus baseline), 6B [7] | odor response (frequency of action potentials during stimulus minus baseline), 7A [8] | odor response (frequency of action potentials during stimulus minus baseline), 6C [9] | odor response (frequency of action potentials during stimulus minus baseline), 4C [10] | odor response (frequency of action potentials during stimulus minus baseline), 6A [11] | odor response (frequency of action potentials during stimulus minus baseline), 2A [12] | further results
1 | CCCC(=O)OC [methyl butyrate] | + (+, >50 spikes/second) | 0 | 0 | 0 | 0 | ++ (++, >100 spikes/second) | + (+, >50 spikes/second) | 0 | 0 | 0 | 0 | 0 | –
2 | C=CC(=C)CCC=C(C)C [myrcene] | 0 | 0 | 0 | 0 | ++ (++, >100 spikes/second) | + (+, >50 spikes/second) | + (+, >50 spikes/second) | 0 | 0 | 0 | 0 | 0 | –
3 | CCCCCCCCC=O [nonanal] | ++ (++, >100 spikes/second) | 0 | 0 | 0 | 0 | ++ (++, >100 spikes/second) | ++ (++, >100 spikes/second) | 0 | 0 | 0 | 0 | 0 | response to ultra-prolonged activators, 7C [1, 13]: ++ (++, >100 spikes/second); response to ultra-prolonged activators, 2B [2, 13]: 0; response to ultra-prolonged activators, 7B [3, 13]: 0; response to ultra-prolonged activators, 4A [4, 13]: 0; response to ultra-prolonged activators, 2C [5, 13]: 0; response to ultra-prolonged activators, 4B [6, 13]: ++ (++, >100 spikes/second); response to ultra-prolonged activators, 6B [7, 13]: ++ (++, >100 spikes/second); response to ultra-prolonged activators, 7A [8, 13]: 0; response to ultra-prolonged activators, 6C [9, 13]: 0; response to ultra-prolonged activators, 4C [10, 13]: 0; response to ultra-prolonged activators, 6A [11, 13]: 0; response to ultra-prolonged activators, 2A [12, 13]: 0
4 | CCCCCCCC=O [octanal] | 0 | + (+, >50 spikes/second) | ++ (++, >100 spikes/second) | + (+, >50 spikes/second) | 0 | 0 | 0 | 0 | + (+, >50 spikes/second) | + (+, >50 spikes/second) | + (+, >50 spikes/second) | 0 | –
5 | Cc1ccc(C(C)C)cc1 [p-cymene] | 0 | 0 | 0 | 0 | 0 | +++ (+++, >150 spikes/second) | ++ (++, >100 spikes/second) | 0 | 0 | 0 | 0 | 0 | –
6 | CCCCCOC(C)=O [pentyl acetate] | 0 | 0 | 0 | 0 | ++ (++, >100 spikes/second) | + (+, >50 spikes/second) | ++ (++, >100 spikes/second) | 0 | 0 | 0 | 0 | 0 | –
7 | O=CCc1ccccc1 [phenylacetaldehyde] | 0 | 0 | 0 | 0 | 0 | + (+, >50 spikes/second) | + (+, >50 spikes/second) | 0 | 0 | 0 | 0 | 0 | –
8 | CC1=CCC(=C(C)C)CC1 [terpinolene] | 0 | 0 | 0 | 0 | 0 | + (+, >50 spikes/second) | + (+, >50 spikes/second) | 0 | 0 | 0 | 0 | 0 | –
